Where “and” joins values, the source holds several entries; their conditions need not be identical. Equal values may be shown once. Numbers after ± are expanded uncertainties.
Assay: an = ratio of the nth substance listed
Conditions: 100 kPa, Liquid, Buoyancy - hydrostatic balance

[F][Al]([F])[F] [aluminum fluoride] + [F-].[K+]
mass density
Conditions	a2 = 1.3	a2 = 1.5
1039.4 K	1799 ± 12 kg/m3	–
1039.6 K	1795 ± 11 kg/m3	–
1039.8 K	1795 ± 10 kg/m3	–
1039.9 K	1798 ± 11 kg/m3	–
1040.1 K	1795 ± 12 kg/m3	–
1040.4 K	1795 ± 11 kg/m3	–
1040.6 K	1798 ± 11 kg/m3 and 1795 ± 11 kg/m3	–
1040.8 K	1798 ± 11 kg/m3	–
1040.9 K	1797 ± 11 kg/m3	–
1041 K	1796 ± 11 kg/m3 and 1797 ± 10 kg/m3	–
1041.2 K	1795 ± 10 kg/m3	–
1042.1 K	1796 ± 11 kg/m3	–
1042.3 K	1794 ± 11 kg/m3	–
1042.5 K	1796 ± 11 kg/m3	–
1042.8 K	1793 ± 10 kg/m3 and 1794 ± 10 kg/m3	–
1042.9 K	1792 ± 10 kg/m3 and 1794 ± 10 kg/m3	–
1043 K	1793 ± 10 kg/m3	–
1043.1 K	1795 ± 11 kg/m3	–
1043.4 K	1795 ± 11 kg/m3	–
1043.7 K	1795 ± 10 kg/m3	–
1043.8 K	1794 ± 10 kg/m3	–
1043.9 K	1794 ± 10 kg/m3 and 1791 ± 10 kg/m3	–
1044.3 K	1791 ± 11 kg/m3	–
1044.4 K	1791 ± 10 kg/m3	–
1045 K	1793 ± 11 kg/m3	–
1045.3 K	1793 ± 11 kg/m3 and 1790 ± 10 kg/m3	–
1045.4 K	1789 ± 12 kg/m3	–
1045.6 K	1792 ± 10 kg/m3	–
1045.8 K	1793 ± 11 kg/m3	–
1046.1 K	1793 ± 12 kg/m3	–
1046.3 K	1789 ± 10 kg/m3	–
1046.5 K	1789 ± 10 kg/m3	–
1046.7 K	1792 ± 11 kg/m3 and 1789 ± 11 kg/m3	–
1046.9 K	1789 ± 12 kg/m3	–
1047 K	1789 ± 11 kg/m3	–
1047.3 K	1792 ± 10 kg/m3	–
1047.4 K	1791 ± 10 kg/m3	–
1047.6 K	1791 ± 10 kg/m3	–
1048 K	1791 ± 10 kg/m3	–
1048.1 K	1788 ± 10 kg/m3	–
1048.4 K	1786 ± 10 kg/m3	–
1048.6 K	1790 ± 11 kg/m3 and 1786 ± 11 kg/m3	–
1048.8 K	1788 ± 11 kg/m3	–
1049.4 K	1789 ± 10 kg/m3	–
1049.5 K	1789 ± 11 kg/m3	–
1049.6 K	1786 ± 11 kg/m3	–
1049.7 K	1785 ± 10 kg/m3	–
1049.9 K	1789 ± 10 kg/m3	–
1050.5 K	1788 ± 10 kg/m3 and 1785 ± 10 kg/m3	–
1050.6 K	1784 ± 10 kg/m3	–
1051.2 K	1787 ± 11 kg/m3	–
1051.3 K	1787 ± 10 kg/m3	–
1051.5 K	1787 ± 10 kg/m3 and 1783 ± 10 kg/m3 and 1784 ± 10 kg/m3	–
1051.6 K	1787 ± 10 kg/m3 and 1782 ± 10 kg/m3	–
1052 K	1783 ± 11 kg/m3	–
1052.2 K	1786 ± 11 kg/m3 and 1782 ± 11 kg/m3	–
1052.7 K	1786 ± 10 kg/m3	–
1053.2 K	1782 ± 10 kg/m3	–
1053.4 K	1786 ± 11 kg/m3	–
1053.5 K	1786 ± 11 kg/m3	–
1053.7 K	1786 ± 11 kg/m3	–
1053.9 K	1782 ± 11 kg/m3	–
1054.4 K	1785 ± 10 kg/m3	–
1054.7 K	1784 ± 10 kg/m3	–
1055.3 K	1784 ± 10 kg/m3	–
1055.6 K	1784 ± 10 kg/m3	–
1056 K	1784 ± 11 kg/m3	–
1056.1 K	1783 ± 11 kg/m3	–
1056.3 K	1783 ± 11 kg/m3	–
1056.4 K	1783 ± 11 kg/m3	–
1057.3 K	1782 ± 10 kg/m3	–
1057.7 K	1782 ± 10 kg/m3	–
1057.9 K	1781 ± 10 kg/m3	–
1058.1 K	1781 ± 10 kg/m3	–
1059.2 K	1781 ± 10 kg/m3	–
1059.3 K	1780 ± 10 kg/m3	–
1059.5 K	1780 ± 11 kg/m3	–
1060.2 K	1779 ± 10 kg/m3 and 1780 ± 10 kg/m3	–
1060.5 K	–	1796 ± 10 kg/m3
1060.8 K	–	1796 ± 10 kg/m3
1061.1 K	1778 ± 10 kg/m3	1796 ± 10 kg/m3
1061.2 K	1779 ± 11 kg/m3	–
1061.3 K	1778 ± 11 kg/m3	–
1061.5 K	1779 ± 11 kg/m3	–
1061.6 K	1777 ± 11 kg/m3	1796 ± 10 kg/m3
1061.9 K	–	1795 ± 10 kg/m3
1062.2 K	–	1795 ± 10 kg/m3
1062.5 K	–	1795 ± 10 kg/m3
1062.8 K	1777 ± 10 kg/m3	–
1062.9 K	–	1795 ± 10 kg/m3
1063.2 K	1776 ± 10 kg/m3 and 1777 ± 10 kg/m3	–
1063.3 K	–	1794 ± 10 kg/m3
1063.6 K	–	1794 ± 10 kg/m3
1063.7 K	1776 ± 10 kg/m3	–
1064.1 K	1775 ± 10 kg/m3	1794 ± 10 kg/m3
1064.4 K	–	1794 ± 11 kg/m3
1064.6 K	1775 ± 10 kg/m3	–
1064.7 K	–	1793 ± 10 kg/m3
1065.2 K	–	1793 ± 10 kg/m3
1065.3 K	1775 ± 11 kg/m3	–
1065.5 K	–	1792 ± 10 kg/m3
1065.8 K	1774 ± 10 kg/m3	–
1066 K	1774 ± 11 kg/m3	1792 ± 10 kg/m3
1066.3 K	1775 ± 10 kg/m3	–
1066.4 K	–	1792 ± 10 kg/m3
1066.7 K	–	1792 ± 10 kg/m3
1066.9 K	1774 ± 10 kg/m3	–
1067 K	1773 ± 10 kg/m3	–
1067.2 K	1773 ± 10 kg/m3	1791 ± 10 kg/m3
1067.4 K	–	1791 ± 10 kg/m3
1067.7 K	1772 ± 10 kg/m3	–
1067.9 K	–	1791 ± 10 kg/m3
1068.2 K	–	1790 ± 10 kg/m3

From the NIST ThermoML archive (doi:10.1021/acs.jced.8b00157)
